The source of these data is patent US20080146556A1, “Method of radio-sensitizing tumors using a radio-sensitizing agent” (Cephalon, Inc., priority 2006, published 2008).

One series addresses recombinant human PARP (Homo sapiens, UniProt P09874). The series can be described thus: Measurement of PARP enzymatic activity ([32P]NAD+ transfer to protein acceptor). As to conditions: 100 μM NAD+. Type of series: biochemical. As for the experimental part:
PARP activity was monitored by transfer of radiolabeled ADP-ribose units from [^32P]NAD^+ to a protein acceptor such as histone or PARP itself. The assay mixtures contained 100 mM Tris (pH 8.0), 2 mM DTT, 10 mM MgCl2, 20 ug/ml DNA (nicked by sonication), […] histone H1, 5 ng recombinant human PARP, and inhibitor or DMSO (<2.5% (v/v)) in a final volume of 100 uL. The reactions were initiated by the addition of 100 μM NAD^+ supplemented with 2 uCi [^32P]NAD^+/mL and maintained at room temperature for 12 minutes. Assays were terminated by the addition of […] and the radiolabeled precipitate was collected on a 96-well filter plate (Millipore, MADP NOB 50), washed with 25% TCA. The amount of acid-insoluble radioactivity, corresponding to polyADP-ribosylated protein, was quantitated in a Wallac MicroBeta scintillation counter.
Single-point inhibition data were calculated by comparing PARP, VEGFR2, or MLK3 activity in the presence of inhibitor to activity in the presence of DMSO only. Inhibition curves for compounds were generated by plotting percent inhibition versus log10 of the concentration of compound. IC50 values were calculated by nonlinear regression using the sigmoidal dose-response (variable slope) equation in GraphPad Prism as follows:
y=bottom+(top−bottom)/(1+10^(log IC^50^−x)*Hillslope)
where y is the % activity at a given concentration of compound, x is the logarithm of the concentration of compound, bottom is the % inhibition at the lowest compound concentration tested, and top is the % inhibition at the highest compound concentration examined. The values for bottom and top were fixed at 0 and 100, respectively. IC50 values are reported as the average of at least three separate determinations.
Where no IC50 value is represented, data has yet to be determined.

Series [1] is described as follows: Plasma levels of Example 6 at Cmax after s.c. dosing of Example 7 in the radio-sensitization studies. Type of series: in vivo, nude mice. Conditions: athymic NCR NUM nude, mouse, sc.
For series [2], the system named is U87MG human glioblastoma xenografts. Type of series: in vivo.
For series [3] the test system is unchanged. In words: Initial radio-sensitizing study, non-optimized dosing schedule (7.5 Gy x 3 days, s.c.). Format: in vivo, nude mice.
The test system is the same in series [4]. In words: Preliminary radio-sensitizing study of orally administered Example 7. Format: in vivo, nude mice.
The test system of series [5] is bone marrow and intestinal mucosa. The series can be described thus: Bone marrow and jejunal crypt assays for radiation-induced normal tissue toxicity. Type of series: in vivo. As to conditions: Example 7 30 and 100 mg/kg dose equivalents of Example 6 sc plus 2 Gy radiation x 5 days. As for the experimental part:
To evaluate therapeutic gain, Example 7 (30 and 100 mg/kg dose equivalents of Example 6 sc) plus 2 Gy radiation×5 days was evaluated in bone marrow and jejunal crypt assays to determine if Example 7 potentiated radiation-induced normal tissue (NT) toxicity.

Setting [6] is: Example 7 30 mg/kg s.c. qd x 21 d plus RT 2 Gy x 5 days.

pIC50: −log10 of the molar value. Read-outs that look alike come from different tables or passages of the source.

Sequence of recombinant human PARP (P09874 whole entry): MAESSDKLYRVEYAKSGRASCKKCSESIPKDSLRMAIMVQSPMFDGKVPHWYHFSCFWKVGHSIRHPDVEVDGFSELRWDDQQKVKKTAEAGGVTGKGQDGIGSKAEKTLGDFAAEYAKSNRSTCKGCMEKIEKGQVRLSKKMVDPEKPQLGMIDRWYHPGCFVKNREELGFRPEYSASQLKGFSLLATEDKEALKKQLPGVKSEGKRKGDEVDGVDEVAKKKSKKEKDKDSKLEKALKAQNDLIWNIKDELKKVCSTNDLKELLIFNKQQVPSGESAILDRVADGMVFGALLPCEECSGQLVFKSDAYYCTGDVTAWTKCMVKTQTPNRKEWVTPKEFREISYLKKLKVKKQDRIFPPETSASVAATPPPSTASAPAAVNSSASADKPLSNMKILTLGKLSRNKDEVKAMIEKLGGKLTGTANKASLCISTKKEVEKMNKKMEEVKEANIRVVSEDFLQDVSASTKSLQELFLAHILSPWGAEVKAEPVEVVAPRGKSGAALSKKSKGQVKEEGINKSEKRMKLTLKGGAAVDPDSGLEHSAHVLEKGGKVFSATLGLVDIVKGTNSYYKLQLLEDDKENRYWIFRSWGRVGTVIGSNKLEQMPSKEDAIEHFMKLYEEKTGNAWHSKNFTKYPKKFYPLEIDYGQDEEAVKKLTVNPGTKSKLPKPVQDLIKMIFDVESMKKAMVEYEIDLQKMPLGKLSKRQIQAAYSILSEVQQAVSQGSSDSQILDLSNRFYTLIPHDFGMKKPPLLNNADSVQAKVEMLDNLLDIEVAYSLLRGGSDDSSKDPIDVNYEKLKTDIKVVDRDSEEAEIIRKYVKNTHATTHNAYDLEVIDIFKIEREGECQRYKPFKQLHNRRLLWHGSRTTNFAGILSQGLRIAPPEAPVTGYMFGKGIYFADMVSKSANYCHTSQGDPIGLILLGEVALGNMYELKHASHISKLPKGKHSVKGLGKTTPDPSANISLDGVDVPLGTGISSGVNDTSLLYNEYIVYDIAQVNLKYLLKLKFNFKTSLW

For `COc1cccc2c1c1c3c(c4c(c1n2CN1CCOCC1)CCC4)C(=O)N(CN1CCOCC1)C3=O` [Example 9, 7-Methoxy-5,11-(bis-morpholin-4-ylmethyl)-1,2,3,11-tetrahydro-5,11-diaza-benzo[a]trindene-4,6-dione], the pIC50 at recombinant human PARP was over 7.00.
With `COc1cccc2[nH]c3c4c(c5c(c3c12)C(=O)NC5=O)CCC4` [Example 6, 7-Methoxy-1,2,3,11-tetrahydro-5,11-diaza-benzo[a]trindene-4,6-dione], the Cmax in series [1] (30 mg/kg, Example 7 30 mg/kg s.c., fractionated RT study, read-out: Plasma levels of Example 6 at Cmax associated with radio-sensitization efficacy) was 5.5 µM; in series [1] (100 mg/kg, Example 7 100 mg/kg s.c. dose, fractionated RT study, read-out: Plasma levels at Cmax), 21 µM; in series [1] (100 mg/kg, at 100 mg/kg Example 7 s.c., initial study (7.5 Gy schedule), read-out: Plasma levels of Example 6 at Cmax associated with efficacy), 23 µM. Also, the negative logarithm of the IC50 (pIC50) at recombinant human PARP was over 7.00.
As for `COc1cccc2[nH]c3c4c(c5c(c3c12)C(=O)N(CN1CCN(C)CC1)C5=O)CCC4` [Example 7, 7-Methoxy-5-(4-methyl-piperazin-1-ylmethyl)-1,2,3,11-tetrahydro-5,11-diaza-benzo[a]trindene-4,6-dione], the “TGD compared to radiation alone” value in series [2] (Example 7 30 mg/kg s.c. qd x 21 d in combination with RT 2 Gy x 5 days) is given as 15 days. In series [2] (setting [6]), the “TGD compared to Example 7 alone” value amounted to 26 days, the “fold increase in TGD compared to Example 7 alone” value is recorded as 6 fold and the “fold increase in TGD compared to radiation alone” value is 4 fold. In series [2] (Example 7 100 mg/kg s.c. with fractionated radiotherapy 2 Gy x 5 days), the anti-tumor efficacy result is recorded as “significant anti-tumor efficacy”. Also, in series [2] (Example 7 100 mg/kg s.c. with fractionated radiotherapy, by day 11), the mortality amounted to 80%. For the same compound, the “effect on tumor growth inhibition, Example 7 alone” value in series [2] (Example 7 alone, 30 mg/kg dose equivalents of Example 6 s.c. qd x 21 days) was “no effect on tumor growth inhibition”. The “tumor growth delay (TGD)” value in series [3] (Example 7 (100 mg/kg s.c. qd) with 7.5 Gy radiation for 3 days, vs vehicle) was 14.8 days. Besides, the “time for tumors to reach 2000 mm3” value in series [3] (Example 7 (100 mg/kg s.c. qd) with 7.5 Gy radiation for 3 days, radiation alone 16.1 days) was 24.8 days. Besides, the “effect on tumor growth as a single agent” value in series [3] (Example 7 alone, 100 mg/kg dose equivalents of Example 6, s.c., QD for 5 days) was “no effect on tumor growth”. Moreover, the “time for tumors to reach a tumor volume of 2000 mm3” value in series [3] (Example 7 only, 100 mg/kg dose equivalents of Example 6, s.c., QD 5 days, vehicle 10.0 days) was 9.6 days. Further, the “effect on tumor growth” value in series [4] (Example 7 200 mg/kg dose equivalents of Example 6 p.o. qd x 21 d plus RT 2 Gy x 5 d) was “no effect on tumor growth as compared to RT alone”. Moreover, the “effect on tumor growth” value in series [4] (Example 7 300 mg/kg dose equivalents of Example 6 p.o. qd x 21 d plus RT 2 Gy x 5 d) was “tumor growth stasis starting on day 8 and continuing throughout the study (day 31)”. For the same compound, the “effect on tumor growth” value in series [4] (Example 7 alone, 200 and 300 mg/kg dose equivalents of Example 6 p.o. qd x 21 d) is “no effect on tumor growth as compared to RT alone”. Besides, the “radio-sensitizing effect when administered orally” value in series [4] (oral administration) was “exerts radio-sensitizing effects when administered orally”. For the same compound, the “potentiation of radiation-induced normal tissue toxicity” value in series [5] is reported as “did not potentiate radiation toxicity”. On recombinant human PARP, the pIC50 was over 7.00.
Take `COc1cccc2[nH]c3c4c(c5c(c3c12)C(=O)N(CN1CCOCC1)C5=O)CCC4` [Example 10, 7-Methoxy-5-(morpholin-4-ylmethyl)-1,2,3,11-tetrahydro-5,11-diaza-benzo[a]trindene-4,6-dione]: the pIC50 at recombinant human PARP was over 7.00.
